In patent US20080146593A1, “Substituted 5-Phenyl Pyrimidines I In Therapy” (Basf Aktiengesellschaft, priority 2005, published 2008):

Test system: HeLa cells
Test: Measurement of the cell cycle inhibition in HeLa cells
Assay type: cell-based
Conditions: HeLa B cells, 20 h incubation with compound; FACS ratio G0/G1 to G2/M vs DMSO; concentration at which 50% of cells are in cell cycle arrest
Method: Measurement of the Cell Cycle Inhibition in HeLa Cells—Test Procedure:
HeLa B cells are grown in DMEM (Life Technologies Cat No 21969-035) supplemented with 10% Fetal Calf Serum (FCS, Life Technologies Cat No 10270-106) in 180 cm^2 Flasks at 37° C., 92% humidity and 7% CO2.
Cells are seeded at 5×10^4 cells per well in a 24-well plate. Twenty hours later the compounds are added such that the final concentration is 1×10^−6, 3.3×10^−7, 1.1×10^−7, 3.7×10^−8, 1.2×10^−8 and 1×10^−9 M in a final volume of 500 μl. DMSO alone is added to 6 wells as a control. Cells are incubated with the compounds as above for 20 h. Then cells are observed under the microscope to check for cell death, and the 24-well plate is then centrifuged at 1200 rpm for 5 min at 20° C., acceleration position 7 and break position 5 (Eppendorf centrifuge 5804R).
The supernatant is removed and the cells lysed with 0.5 ml RNase Buffer (10 mM NaCitrate, 0.1% Nonidet NP40, 50 μg/ml RNase, 10 μg/ml Propidium iodide) per well. The plates are then incubated for at least 30 min in the dark at RT and the samples then transferred to FACS tubes. Samples are measured in a FACS machine (Beckton Dickinson) at the following settings:
Instrument Settings of the FACS Calibur:
The ratio of cells in G0/G1-phase to G2/M phase is calculated and compared to the value for the controls (DMSO) only. Results are given in table 2 as the IC50 value calculated from the concentration curve plotted against the cell cycle ratio and indicate the compound concentration at which 50% of cells are in cell cycle arrest after treatment with the compound.

IC50 | SMILES
30 nM | CON=C(N)c1nc(Cl)c(-c2cc(F)ccc2Cl)c(N[C@@H](C)C(F)(F)F)n1 [Example 221]
18 nM | CC1CCCN(c2nc(-n3cncn3)nc(Cl)c2-c2c(F)cc(F)cc2F)C1 (stereo not shown) [Example 44]
22 nM | Cc1cnn(-c2nc(Cl)c(-c3c(F)cc(F)cc3F)c(N[C@@H](C)C(F)(F)F)n2)c1Cl [Example 155]
46 nM | CC1CCCN1c1nc(-n2cncn2)nc(Cl)c1-c1c(F)cccc1Cl (stereo not shown) [Example 98]
12 nM | COc1cc(F)c(-c2c(Cl)nc(C(N)=NO)nc2N[C@@H](C)C(C)C)c(F)c1 [Example 191]
33 nM | COc1cc(F)c(-c2c(Cl)nc(C(N)=O)nc2N[C@@H](C)C(C)C)c(F)c1 [Example 199]
3.5 nM | C[C@H](Nc1nc(-c2cnccn2)nc(Cl)c1-c1c(F)cc(F)cc1F)C(F)(F)F [Example 27]
51 nM | CON=C(N)c1nc(Cl)c(-c2c(F)cccc2F)c(N[C@@H](C)C(F)(F)F)n1 [Example 213]
48 nM | CCNc1nc(-n2cccn2)nc(Cl)c1-c1c(F)cc(F)cc1F [Example 164]
20 nM | CC(C)[C@H](C)Nc1nc(C(N)=NO)nc(Cl)c1-c1c(F)cccc1F [Example 195]
11 nM | Fc1cc(F)c(-c2c(Cl)nc(-n3ccnn3)nc2N2CCCCC2)c(F)c1 [Example 56]
6.9 nM | C[C@H](Nc1nc(-c2ccccn2)nc(Cl)c1-c1c(F)cc(F)cc1F)C(F)(F)F [Example 12]
29 nM | CON=C(N)c1nc(Cl)c(-c2ccc([N+](=O)[O-])cc2Cl)c(N[C@@H](C)C(C)C)n1 [Example 219]
59 nM | CON=C(N)c1nc(Cl)c(-c2ccc(F)cc2Cl)c(N2CCCC2C)n1 (stereo not shown) [Example 170]
11 nM | CON=C(N)c1nc(Cl)c(-c2c(F)cc(OC)cc2F)c(N[C@@H](C)C(F)(F)F)n1 [Example 182]
20 nM | COc1cc(F)c(-c2c(Cl)nc(-n3cncn3)nc2N2CCC(C)CC2)c(F)c1 [Example 68]
24 nM | CCOC(=O)C(C)C=NNc1nc(Cl)c(-c2c(F)cc(F)cc2F)c(N[C@@H](C)C(F)(F)F)n1 (stereo partly shown) [Example 152]
35 nM | Cc1nc(-c2nc(Cl)c(-c3c(F)cc(F)cc3F)c(N[C@H](C)C(C)C)n2)cs1 [Example 70]
48 nM | C=CCCN(C)c1nc(-n2ccc(N)n2)nc(Cl)c1-c1c(F)cccc1Cl [Example 131]
26 nM | Cc1ccn(-c2nc(Cl)c(-c3c(F)cc(F)cc3F)c(N[C@H](C)C(C)C)n2)n1 [Example 92]
39 nM | C=CCN(C)c1nc(-n2cccn2)nc(Cl)c1-c1c(F)cc(F)cc1F [Example 142]
42 nM | CNC(=O)c1nc(Cl)c(-c2c(F)cc(F)cc2F)c(N[C@@H](C)C(F)(F)F)n1 [Example 174]
12 nM | CCC(C)Nc1nc(-n2cccn2)nc(Cl)c1-c1c(F)cccc1Cl (stereo not shown) [Example 106]
30 nM | C[C@H](Nc1nc(-n2nccn2)nc(Br)c1-c1c(F)cc(F)cc1F)C(F)(F)F [Example 165]
50 nM | C=CCN(CC=C)c1nc(-n2cc(Br)cn2)nc(Cl)c1-c1ccc(F)cc1Cl [Example 134]

IC50 | SMILES
26 nM | CC(C)[C@H](C)Nc1nc(-n2ccnn2)nc(Cl)c1-c1c(F)cc(F)cc1F [Example 139]
19 nM | CC(C)[C@@H](C)Nc1nc(-n2cncn2)nc(Cl)c1-c1c(F)cc(F)cc1F [Example 60]
33 nM | CC(C)Nc1nc(-n2cccn2)nc(Cl)c1-c1c(F)cc(F)cc1F [Example 101]
25 nM | CCC(C)Nc1nc(-c2csc(C)n2)nc(Cl)c1-c1c(F)cc(F)cc1F (stereo not shown) [Example 71]
4.6 nM | CC(C)c1ccn(-c2nc(Cl)c(-c3c(F)cc(F)cc3F)c(N[C@@H](C)C(F)(F)F)n2)n1 [Example 5]
15 nM | Cc1nc(-n2cccn2)nc(N[C@@H](C)C(F)(F)F)c1-c1c(F)cc(F)cc1F [Example 156]
32 nM | CCC(C)Nc1nc(-n2ccc(N)n2)nc(Cl)c1-c1c(C)cccc1F (stereo not shown) [Example 143]
17 nM | C[C@H](Nc1nc(-n2ccc(C(F)(F)F)n2)nc(Cl)c1-c1c(F)cc(F)cc1F)C(F)(F)F [Example 6]
50 nM | CC[C@H](C)Nc1nc(-n2cccn2)nc(Cl)c1-c1ccc(C)cc1F [Example 102]
39 nM | Cc1ccc(-c2c(Cl)nc(-n3cccn3)nc2N2CCCC(C)C2)c(F)c1 (stereo not shown) [Example 99]
20 nM | Cc1csc(-c2nc(Cl)c(-c3c(F)cc(F)cc3F)c(N[C@@H](C)C(F)(F)F)n2)n1 [Example 178]
37 nM | CC1CCCCN1c1nc(-n2ccc(N)n2)nc(Cl)c1-c1c(F)cccc1F (stereo not shown) [Example 127]
41 nM | Cc1ccc(-c2c(Cl)nc(-n3ccc(N)n3)nc2NCC(F)(F)F)c(F)c1 [Example 149]
18 nM | C=CCN(CC=C)c1nc(-n2ccc(N)n2)nc(Cl)c1-c1ccc(F)cc1Cl [Example 135]
25 nM | C[C@H](Nc1nc(-n2cc(I)cn2)nc(Cl)c1-c1c(F)cc(F)cc1F)C(F)(F)F [Example 34]
24 nM | C[C@H](Nc1nc(-n2ccc(Br)n2)nc(Cl)c1-c1c(F)cc(F)cc1F)C(F)(F)F [Example 38]
16 nM | Cc1ccc(-c2c(Cl)nc(-n3cccn3)nc2NCC(F)(F)F)c(F)c1 [Example 108]
36 nM | CC[C@H](C)Nc1nc(C(N)=NO)nc(Cl)c1-c1ccc(F)cc1Cl [Example 168]
53 nM | COc1ccc(-c2c(Cl)nc(C(N)=O)nc2N[C@@H](C)C(C)C)c(Cl)c1 [Example 183]
20 nM | COc1cc(F)c(-c2c(Cl)nc(-c3ccccn3)nc2N[C@@H](C)C(C)C)c(F)c1 [Example 65]
21 nM | COc1cc(F)c(-c2c(Cl)nc(-c3ccccn3)nc2N2CCC(C)CC2)c(F)c1 [Example 61]
38 nM | CC(C)[C@@H](C)Nc1nc(-n2cccn2)nc(Cl)c1-c1c(F)cccc1Cl [Example 46]
8.3 nM | C[C@H](Nc1nc(-n2ccnn2)nc(Cl)c1-c1c(F)cc(F)cc1F)C(F)(F)F [Example 205]
17 nM | CC1CCN(c2nc(-n3cncn3)nc(Cl)c2-c2c(F)cc(F)cc2F)CC1 [Example 28]
45 nM | CCC(C)Nc1nc(-n2cccn2)nc(Cl)c1-c1ccc(F)cc1F (stereo not shown) [Example 105]

IC50 | SMILES
26 nM | CC1CCN(c2nc(-c3nccs3)nc(Cl)c2-c2c(F)cc(F)cc2F)CC1 [Example 39]
21 nM | C[C@H](Nc1nc(C(N)=NOC(F)F)nc(Cl)c1-c1c(F)cc(F)cc1F)C(F)(F)F [Example 177]
46 nM | C=C(C)CNc1nc(-n2ccc(N)n2)nc(Cl)c1-c1c(F)cc(F)cc1F [Example 122]
48 nM | Cc1cc(C)n(-c2nc(Cl)c(-c3c(F)cc(F)cc3F)c(N3CCC(C)CC3)n2)n1 [Example 30]
26 nM | CC1CCN(c2nc(C(N)=NO)nc(Cl)c2-c2c(F)cc(F)cc2F)CC1 [Example 58]
21 nM | COc1cc(F)c(-c2c(Cl)nc(-c3ccccn3)nc2NC2CCCC2)c(F)c1 [Example 64]
19 nM | CC1CCCN(c2nc(-n3cccn3)nc(Cl)c2-c2c(F)cc(F)cc2F)C1 (stereo not shown) [Example 43]
38 nM | COCC(C)Nc1nc(-n2ccc(N)n2)nc(Cl)c1-c1ccc(C)cc1F (stereo not shown) [Example 128]
26 nM | COc1c(C)cnn1-c1nc(Cl)c(-c2c(F)cc(F)cc2F)c(N[C@@H](C)C(F)(F)F)n1 [Example 154]
7.6 nM | CC1CCCN1c1nc(-n2ccnn2)nc(Cl)c1-c1c(F)cc(F)cc1F (stereo not shown) [Example 76]
47 nM | CC(C)[C@@H](C)Nc1nc(-n2cnc([N+](=O)[O-])n2)nc(Cl)c1-c1c(F)cc(F)cc1F [Example 89]
26 nM | CC1CCN(c2nc(-n3cncn3)nc(Cl)c2-c2c(F)cccc2Cl)CC1 [Example 47]
29 nM | CON=C(N)c1nc(Cl)c(-c2ccc(F)cc2Cl)c(N[C@@H](C)C(C)C)n1 [Example 218]
31 nM | Cc1nn(-c2nc(Cl)c(-c3c(F)cc(F)cc3F)c(N[C@@H](C)C(F)(F)F)n2)c(C)c1Cl [Example 3]
21 nM | CCC(C)Nc1nc(ON=C(C)C)nc(Cl)c1-c1c(C)cccc1F (stereo not shown) [Example 112]
47 nM | COc1cc(F)c(-c2c(Cl)nc(C(N)=S)nc2N[C@@H](C)C(F)(F)F)c(F)c1 [Example 203]
49 nM | C=CCN(C)c1nc(-n2cc(Br)cn2)nc(Cl)c1-c1c(F)cc(F)cc1F [Example 123]
9.1 nM | CC(C)[C@@H](C)Nc1nc(-n2ccnn2)nc(Cl)c1-c1c(F)cccc1Cl [Example 50]
56 nM | CC1CCCN1c1nc(C(N)=NO)nc(Cl)c1-c1ccc(F)cc1Cl (stereo not shown) [Example 208]
8.3 nM | C[C@H](Nc1nc(-n2cnc(SCc3ccccc3)n2)nc(Cl)c1-c1c(F)cc(F)cc1F)C(F)(F)F [Example 151]
49 nM | CCC(C)Nc1nc(-n2cncn2)nc(Cl)c1-c1c(F)cccc1F (stereo not shown) [Example 113]
17 nM | CC1CCN(c2nc(-n3ccnn3)nc(Cl)c2-c2c(F)cc(F)cc2F)CC1 [Example 29]
19 nM | CC1CCN(c2nc(-n3ccnn3)nc(Cl)c2-c2c(F)cccc2F)CC1 [Example 117]
